Structures can show the parent of a compound that is named as a salt. Where two headings read alike, the source gives them in different places.
Tests used:
Format in all cases: cell-based
[1] = tested on: A549 (Lung Adenocarcinoma); experiment: Cell viability analysis (WST-1), A549; conditions: Homo sapiens, WST-1, OD450 nm, read-out: survival rate (viability) of cancer cells, A549
[2] = tested on: A375 (Amelanotic Melanoma); experiment: Cell viability analysis (WST-1), A375; conditions: Homo sapiens, WST-1, OD450 nm, lower viability = better inhibition, read-out: survival rate (viability) of cancer cells, A375
[3] = tested on: H1650 (Lung Adenocarcinoma); experiment: Cell viability analysis (WST-1), H1650; conditions: Homo sapiens, WST-1, OD450 nm, read-out: survival rate (viability) of cancer cells, H1650
[4] = tested on: HCT116 (Colorectal Carcinoma); experiment: Cell viability analysis (WST-1), HCT116; conditions: Homo sapiens, WST-1, OD450 nm, read-out: survival rate (viability) of cancer cells, HCT116 (WT)
[5] = tested on: cancer cell lines; experiment: Growth inhibitory effects on the panel of cancer cell lines; conditions: drug 10 μM, 72 hours; for Numbers of inhibitory effect on cancer cell line: count of cancer cell lines inhibited; for inhibition effect on different cancer cell lines (in words): WST-1
[6] = tested on: HL-60 (Acute Promyelocytic Leukemia); experiment: Cell viability analysis (WST-1), HL-60; conditions: Homo sapiens, HL-60; Table 3; drug 10 μM, 72 hours, WST-1, OD450 nm; read-out: survival rate (viability) of cancer cells, HL-60
[7] = tested on: HepG2 (Hepatocellular Carcinoma); experiment: Cell viability analysis (WST-1), HepG2; conditions: Homo sapiens, WST-1, OD450 nm, read-out: survival rate (viability) of cancer cells, HepG2
[8] = tested on: MKN-45 (Gastric Adenocarcinoma); experiment: Cell viability analysis (WST-1), MKN-45; conditions: Homo sapiens, WST-1, OD450 nm, read-out: survival rate (viability) of cancer cells, MKN-45
[9] = tested on: HeLa (Cervix Adenocarcinoma); experiment: Cell viability analysis (WST-1), HeLa; conditions: Homo sapiens, HeLa, WST-1, OD450 nm, read-out: survival rate (viability) of cancer cells, HeLa
[10] = tested on: LoVo (Colorectal Adenocarcinoma); experiment: Cell viability analysis (WST-1), LoVo; conditions: Homo sapiens, LoVo, WST-1, OD450 nm, read-out: survival rate (viability) of cancer cells, LoVo
[11] = tested on: MCF7 (Mammary Gland, Adenocarcinoma); experiment: Cell viability analysis (WST-1), MCF7; conditions: Homo sapiens, WST-1, OD450 nm, read-out: survival rate (viability) of cancer cells, MCF7
[12] = tested on: PC3 (Prostate Adenocarcinoma); experiment: Cell viability analysis (WST-1), PC3; conditions: WST-1, OD450 nm, read-out: survival rate (viability) of cancer cells, PC3
[13] = tested on: TSGH-8301 (Urinary Bladder Carcinoma); experiment: Cell viability analysis (WST-1), TSGH-8301; conditions: WST-1, OD450 nm, read-out: survival rate (viability) of cancer cells, TSGH
[14] = tested on: AGS (Gastric Adenocarcinoma); experiment: Cell viability analysis (WST-1), AGS; conditions: WST-1, OD450 nm, read-out: survival rate (viability) of cancer cells, AGS
[15] = A549, 72 h, Table 3, drug 10 μM
[16] = A-375, 72 h, Table 3, drug 10 μM
[17] = NCI-H1650, 72 h, Table 3, drug 10 μM
[18] = HCT-116, 72 h, Table 3, drug 10 μM
[19] = HepG2, 72 h, Table 3, drug 10 μM
[20] = MKN-45, 72 h, Table 3, drug 10 μM
[21] = MCF7, 72 h, Table 3, drug 10 μM

Row | Compound | viability at 10 µM [1, 15] [%] | viability at 10 µM [2, 16] [%] | viability at 10 µM [3, 17] [%] | viability at 10 µM [4, 18] [%] | Numbers of inhibitory effect on cancer cell line [5] | inhibition effect on different cancer cell lines (in words) [5] | viability at 10 µM [6] [%] | viability at 10 µM [7, 19] [%] | viability at 10 µM [8, 20] [%] | viability at 10 µM ([9]; 72 h, Table 3, drug 10 μM) [%] | viability at 10 µM ([10]; 72 h, Table 3, drug 10 μM) [%] | viability at 10 µM [11, 21] [%] | viability at 10 µM ([12]; 72 h, Table 3, drug 10 μM) [%] | viability at 10 µM ([13]; 72 h, Table 3, drug 10 μM) [%] | viability at 10 µM ([14]; 72 h, Table 3, drug 10 μM) [%] | further results
1 | CO[C@@H]1[C@@H](OC(N)=O)[C@@H](O)[C@H](Oc2ccc3c(O)c(NC(=O)c4ccc(O)c(CC=C(C)C)c4)c(=O)oc3c2C)OC1(C)C [Novobiocin sodium (Albamycin), Novobiocin sodium] | 95.2 | 93.4 | 93.5 | 116 | 0 | significant inhibition effect | 123 | 92 | 84.4 | 96.1 | 87.1 | 109 | 89 | 85.3 | 128 | 
2 | CC(=O)O[C@H]1C[C@@H]2CC[C@@H]3[C@H](CC[C@@]4(C)[C@H]3C[C@H]([N+]3(C)CCCCC3)[C@@H]4OC(C)=O)[C@@]2(C)C[C@@H]1[N+]1(C)CCCCC1 [Pancuronium (Pavulon), Pancuronium] | 100 | 75.4 | 91.7 | 102 | 0 | significant inhibition effect | 109 | 92.7 | 95.3 | 83.3 | 79.8 | 110 | 108 | 68.3 | 120 | 
3 | CCCNCC(O)COc1ccccc1C(=O)CCc1ccccc1 (centres unmarked) [Propafenone (Rytmonorm), Propafenone] | 94.1 | 95.8 | 92.5 | 109 | 0 |  | 113 | 86 | 84.7 | 109 | 105 | 120 | 104 | 61.1 | 79.8 | 
4 | CCOC(=O)[C@H](CCc1ccccc1)N[C@@H](C)C(=O)N1[C@H](C(=O)O)C[C@@H]2CCC[C@@H]21 [Ramipril (Altace), Ramipril] | 99.6 | 120 | 135 | 108 | 0 | significant inhibition effect | 107 | 106 | 84 | 84.3 | 81.9 | 82.4 | 104 | 114 | 99.8 | 
5 | C#CCN[C@@H]1CCc2ccccc21 [Rasagiline mesylate] | 91.3 | 76.9 | 71.8 | 142 | 0 | significant inhibition effect | 105 | 92 | 87.7 | 88.1 | 94 | 88.3 | 103 | 74.2 | 75.8 | 
6 | CCN(C)C(=O)Oc1cccc([C@H](C)N(C)C)c1 [Rivastigmine tartrate (Exelon), Rivastigmine tartrate] |  |  |  |  | 0 | significant inhibition effect | 103 |  |  |  |  |  |  |  |  | viability at 10 µM ([1]; A549, Table 3, drug 10 μM, 72 hours): 65.9%; viability at 10 µM ([2]; A-375, Table 3, drug 10 μM, 72 hours): 76.1%; viability at 10 µM ([3]; NCI-H1650, Table 3, drug 10 μM, 72 hours): 83.6%; viability at 10 µM ([4]; HCT-116, Table 3, drug 10 μM, 72 hours): 118%; viability at 10 µM ([7]; HepG2, Table 3, drug 10 μM, 72 hours): 93.7%; viability at 10 µM ([8]; MKN-45, Table 3, drug 10 μM, 72 hours): 93.8%; viability at 10 µM ([9]; Table 3, drug 10 μM, 72 hours): 90.1%; viability at 10 µM ([10]; Table 3, drug 10 μM, 72 hours): 85.4%; viability at 10 µM ([11]; MCF7, Table 3, drug 10 μM, 72 hours): 67.5%; viability at 10 µM ([12]; Table 3, drug 10 μM, 72 hours): 85.4%; viability at 10 µM ([13]; Table 3, drug 10 μM, 72 hours): 83.9%; viability at 10 µM ([14]; Table 3, drug 10 μM, 72 hours): 63.6%
7 | CCCSc1nc(N[C@@H]2C[C@H]2c2ccc(F)c(F)c2)c2nnn([C@@H]3C[C@H](OCCO)[C@@H](O)[C@H]3O)c2n1 [Ticagrelor] | 85 | 60.1 | 76 | 73.6 | 0 | significant inhibition effect | 93.7 | 94.5 | 114 | 126 | 79.6 | 83.1 | 84.1 | 86 | 100 | 
8 | Clc1ccccc1CN1CCc2sccc2C1 [Ticlopidine HCl] | 84.9 | 86.5 | 61.6 | 71.9 | 0 | significant inhibition effect | 102 | 97.4 | 72.7 | 81.9 | 90.5 | 96.8 | 69.9 | 112 | 77.2 | 
9 | NS(=O)(=O)c1cc2c(cc1Cl)NC(C(Cl)Cl)NS2(=O)=O (centres unmarked) [Trichlormethiazide (Achletin), Trichlormethiazide] | 106 | 128 | 76.7 | 112 | 0 | significant inhibition effect | 102 | 95.1 | 71 | 85.7 | 107 | 64.2 | 122 | 95.6 | 79.3 | 
10 | CC(=O)NS(=O)(=O)c1ccc(N)cc1 [sulfacetamide sodium] | 70 | 64.9 | 79.8 | 76.7 | 0 | significant inhibition effect | 112 | 98.7 | 118 | 75.9 | 81.8 | 110 | 70.8 | 120 | 81.4 | 

— US20170304388A1, “NEW INDICATION OF CARDIOVASCULAR DRUGS FOR PREPARATION OF CANCER INHIBITION PHARMACEUTICAL COMPOSITION” (LAUNX BIOMEDICAL CO., LTD., priority 2014, published 2017)
